Test results published in ChEMBL document CHEMBL4627276, “CT2-3, a novel magnolol analogue suppresses NSCLC cells through triggering cell cycle arrest and apoptosis” (Bioorg Med Chem, 2020).
Values belong to the molecule of their own block, whether it stands above or below them. Activity calls are given as the source filed them. No cut-off for these calls is given here.

Key:
[1] = system: NCI-H460; assay: Antiproliferative activity against human H460 cells assessed as inhibition of cell viability at 40 uM incubated for 24 hrs by CCK-8 assay; type: functional, cell-based
[2] = system: A549; assay: Antiproliferative activity against human A549 cells assessed as inhibition of cell viability at 40 uM incubated for 24 hrs by CCK-8 assay; type: functional, cell-based
[3] = system: A549; assay: Antiproliferative activity against human A549 cells assessed as inhibition of cell viability incubated for 24 hrs by CCK-8 assay; type: functional, cell-based; conditions: for IC50: A549, 24 h
[4] = system: A549; assay: Inhibition of colony formation in human A549 cells at 20 uM incubated for 48 hrs and measured after 10 days culturing in normal media by Giemsa staining based inverted microscopy; type: functional, cell-based
[5] = system: NCI-H460; assay: Antiproliferative activity against human H460 cells assessed as inhibition of cell viability incubated for 24 hrs by CCK-8 assay; type: functional, cell-based; conditions: for IC50: NCI-H460, 24 h
[6] = system: NCI-H460; assay: Inhibition of colony formation in human H460 cells at 20 uM incubated for 48 hrs and measured after 10 days culturing in normal media by Giemsa staining based inverted microscopy; type: functional, cell-based
[7] = system: NCI-H460; assay: Induction of apoptosis in human H460 cells assessed as live cells at 20 uM incubated for 24 hrs by Annexin V-FITC/propidium iodide staining based flow cytometric method (reference value: 91.2%); type: functional
[8] = system: NCI-H460; assay: Downregulation of TOP3B protein expression in human H460 cells at 40 uM incubated for 24 hrs by western blot analysis; type: functional, cell-based
[9] = system: NCI-H460; assay: Induction of apoptosis in human H460 cells assessed as necrotic cell at 20 uM incubated for 24 hrs by Annexin V-FITC/propidium iodide staining based flow cytometric method (reference value: 2.1%); type: functional
[10] = system: A549; assay: Induction of ROS generation in human A549 cells incubated for 24 hrs by DCFH-DA staining based fluorescence microscopy; type: functional, cell-based
[11] = system: NCI-H460; assay: Induction of apoptosis in human H460 cells assessed as live cells at 40 uM incubated for 24 hrs by Annexin V-FITC/propidium iodide staining based flow cytometric method (reference value: 91.2%); type: functional
[12] = system: A549; assay: Induction of apoptosis in human A549 cells assessed as necrotic cell at 20 uM incubated for 24 hrs by Annexin V-FITC/propidium iodide staining based flow cytometric method (reference value: 2.4%); type: functional
[13] = system: NCI-H460; assay: Antiproliferative activity against human H460 cells assessed as cell viability at 40 uM incubated for 24 hrs by CCK-8 assay; type: functional; conditions: NCI-H460, 24 h, read-out: Activity
[14] = system: A549; assay: Induction of apoptosis in human A549 cells assessed as necrotic cell at 40 uM incubated for 24 hrs by Annexin V-FITC/propidium iodide staining based flow cytometric method (reference value: 2.4%); type: functional
[15] = Cytotoxicity against mouse MFF cells assessed as inhibition of cell viability after 24 hrs; type: cell-based
[16] = system: NCI-H460; assay: Downregulation of TOP3B mRNA expression in human H460 cells incubated for 24 hrs by RT-qPCR analysis; type: functional, cell-based
[17] = system: A549; assay: Induction of apoptosis in human A549 cells assessed as live cells at 40 uM incubated for 24 hrs by Annexin V-FITC/propidium iodide staining based flow cytometric method (reference value: 95.6%); type: functional
[18] = system: NCI-H460; assay: Downregulation of CDK4 mRNA expression in human H460 cells at 40 uM after 24 hrs by RT-qPCR analysis; type: functional, cell-based
[19] = system: NCI-H460; assay: Induction of apoptosis in human H460 cells assessed as late apoptotic cells at 20 uM incubated for 24 hrs by Annexin V-FITC/propidium iodide staining based flow cytometric method (reference value: 4.3%); type: functional
[20] = system: A549; assay: Induction of apoptosis in human A549 cells assessed as live cells at 20 uM incubated for 24 hrs by Annexin V-FITC/propidium iodide staining based flow cytometric method (reference value: 95.6%); type: functional
[21] = system: NCI-H460; assay: Induction of ROS generation in human H460 cells incubated for 24 hrs by DCFH-DA staining based fluorescence microscopy; type: functional, cell-based
[22] = system: A549; assay: Antiproliferative activity against human A549 cells assessed as cell viability at 40 uM incubated for 24 hrs by CCK-8 assay; type: functional; conditions: A549, 24 h, read-out: Activity
[23] = system: NCI-H460; assay: Downregulation of Cyclin D1 mRNA expression in human H460 cells at 40 uM after 24 hrs by RT-qPCR analysis; type: functional, cell-based
[24] = system: NCI-H460; assay: Induction of apoptosis in human H460 cells assessed as early apoptotic cells at 40 uM incubated for 24 hrs by Annexin V-FITC/propidium iodide staining based flow cytometric method (reference value: 2.4%); type: functional
[25] = system: A549; assay: Induction of apoptosis in human A549 cells assessed as late apoptotic cells at 40 uM incubated for 24 hrs by Annexin V-FITC/propidium iodide staining based flow cytometric method (reference value: 1.7%); type: functional
[26] = system: A549; assay: Induction of apoptosis in human A549 cells assessed as early apoptotic cells at 20 uM incubated for 24 hrs by Annexin V-FITC/propidium iodide staining based flow cytometric method (reference value: 0.3%); type: functional
[27] = system: A549; assay: Induction of apoptosis in human A549 cells assessed as late apoptotic cells at 20 uM incubated for 24 hrs by Annexin V-FITC/propidium iodide staining based flow cytometric method (reference value: 1.7%); type: functional
[28] = system: NCI-H460; assay: Induction of apoptosis in human H460 cells assessed as early apoptotic cells at 20 uM incubated for 24 hrs by Annexin V-FITC/propidium iodide staining based flow cytometric method (reference value: 2.4%); type: functional
[29] = system: NCI-H460; assay: Cell cycle arrest in human H460 cells assessed as accumulation of cells at G1 phase at 40 uM incubated for 24 hrs by PI staining based flow cytometric analysis; type: functional
[30] = system: NCI-H460; assay: Downregulation of TOP2B protein expression in human H460 cells at 40 uM incubated for 24 hrs by western blot analysis; type: functional, cell-based
[31] = system: A549; assay: Induction of apoptosis in human A549 cells assessed as early apoptotic cells at 40 uM incubated for 24 hrs by Annexin V-FITC/propidium iodide staining based flow cytometric method (reference value: 0.3%); type: functional
[32] = system: NCI-H460; assay: Induction of apoptosis in human H460 cells assessed as late apoptotic cells at 40 uM incubated for 24 hrs by Annexin V-FITC/propidium iodide staining based flow cytometric method (reference value: 4.3%); type: functional
[33] = system: NCI-H460; assay: Induction of apoptosis in human H460 cells assessed as necrotic cell at 40 uM incubated for 24 hrs by Annexin V-FITC/propidium iodide staining based flow cytometric method (reference value: 2.1%); type: functional
[34] = system: NCI-H460; assay: Downregulation of CDK6 mRNA expression in human H460 cells at 40 uM after 24 hrs by RT-qPCR analysis; type: functional, cell-based
[35] = system: NCI-H460; assay: Downregulation of c-Myc mRNA expression level in human H460 cells incubated for 24 hrs by RT-qPCR analysis; type: functional, cell-based
[36] = system: NCI-H460; assay: Downregulation of TOP2B mRNA expression in human H460 cells incubated for 24 hrs by RT-qPCR analysis; type: functional, cell-based
[37] = system: NCI-H460; assay: Downregulation of c-Myc protein expression level in human H460 cells at 40 uM incubated for 24 hrs by western blot analysis; type: functional, cell-based

SMILES: C=CCc1ccc(O)c(-c2cc(CC=C)ccc2OCCS(=O)(=O)CCCCN2C(=O)c3ccccc3C2=O)c1
Activity [1]: inactive
Activity [2]: inactive

IC50 [3]: > 80 µM
IC50 [5]: > 80 µM
SMILES: C=CCc1ccc(O)c(-c2cc(CC=C)ccc2O)c1 [MAGNOLOL]
inhibition [4]: inactive
Activity [1]: inactive
inhibition [6]: inactive
Activity [2]: inactive

SMILES: C=CCc1ccc(O)c(-c2cc(CC=C)ccc2OCCSCCCCN2C(=O)c3ccccc3C2=O)c1
Activity [1]: inactive
Activity [2]: inactive

IC50 [3]: 41.6 µM
IC50 [5]: 38 µM
SMILES: C=CCc1ccc(O)c(-c2cc(CC=C)ccc2OCC[S+]([O-])CCCCN2C(=O)c3ccccc3C2=O)c1 (configuration not stated)
Activity [7]: 66.7%
inhibition [8]: Active
inhibition [3]: Dose-dependent effect
inhibition [4]: Active
Activity [9]: 7.9%
Activity [10]: Dose-dependent effect
Activity [11]: 46.6%
Activity [12]: 3%
viability at 40 µM [13]: 48.4%
Activity [14]: 8%
Activity [15]: Non-Toxic
inhibition [16]: Active
Activity [17]: 56.7%
inhibition [5]: Dose-dependent effect
inhibition [18]: Active
Activity [19]: 18.6%
Activity [20]: 83.2%
Activity [21]: Dose-dependent effect
viability at 40 µM [22]: 51%
inhibition [23]: Active
inhibition [6]: Active
Activity [24]: 5.7%
Activity [25]: 34.5%
Activity [26]: 1.9%
Activity [27]: 11.9%
Activity [28]: 6.8%
Activity [29]: Active
inhibition [30]: Active
Activity [31]: 0.8%
Activity [32]: 38.1%
Activity [33]: 9.6%
inhibition [34]: Active
inhibition [35]: Active
inhibition [36]: Active
inhibition [37]: Active
